{
  "source": "ChEMBL document CHEMBL1201862",
  "about": "“PubChem BioAssay data set” (2004)",
  "assay_in_all_cases": "NCI tumour cell line growth inhibition, 48 h",
  "key": {"[1]": {"system": "786-0"}, "[2]": {"system": "KM12"}, "[3]": {"system": "RXF 631"}, "[4]": {"system": "NCI-H23"}, "[5]": {"system": "HL-60"}, "[6]": {"system": "SNB-75"}, "[7]": {"system": "ACHN"}, "[8]": {"system": "M14"}, "[9]": {"system": "DMS-273"}, "[10]": {"system": "HT-29"}, "[11]": {"system": "SK-OV-3"}, "[12]": {"system": "M19-MEL"}, "[13]": {"system": "HOP-62"}, "[14]": {"system": "SK-MEL-28"}, "[15]": {"system": "OVCAR-4"}, "[16]": {"system": "HCT-15"}, "[17]": {"system": "K562"}, "[18]": {"system": "SF-295"}, "[19]": {"system": "SNB-19"}, "[20]": {"system": "Malme-3M"}, "[21]": {"system": "U-251"}, "[22]": {"system": "SR"}, "[23]": {"system": "MOLT-4"}, "[24]": {"system": "NCI-H522"}, "[25]": {"system": "DMS-114"}, "[26]": {"system": "DLD-1"}, "[27]": {"system": "OVCAR-3"}, "[28]": {"system": "LXFL 529"}, "[29]": {"system": "IGROV-1"}, "[30]": {"system": "SK-MEL-5"}, "[31]": {"system": "HOP-18"}, "[32]": {"system": "SK-MEL-2"}, "[33]": {"system": "CAKI-1"}, "[34]": {"system": "HCT-116"}, "[35]": {"system": "NCI-H460"}, "[36]": {"system": "UACC-257"}, "[37]": {"system": "UACC-62"}, "[38]": {"system": "A498"}, "[39]": {"system": "HCC 2998"}, "[40]": {"system": "OVCAR-5"}, "[41]": {"system": "TK-10"}, "[42]": {"system": "SW-620"}, "[43]": {"system": "A549"}, "[44]": {"system": "OVCAR-8"}, "[45]": {"system": "RXF 393"}, "[46]": {"system": "LOX IMVI"}, "[47]": {"system": "SN12C"}, "[48]": {"system": "RPMI-8226"}, "[49]": {"system": "SF-539"}, "[50]": {"system": "KM-20L2"}, "[51]": {"system": "NCI-H226"}, "[52]": {"system": "UO-31"}, "[53]": {"system": "CCRF-CEM"}, "[54]": {"system": "COLO 205"}, "[55]": {"system": "SNB-78"}, "[56]": {"system": "SF-268"}, "[57]": {"system": "EKVX"}},
  "note": "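Following 48 hours of exposure in 96-well plates, responses at five concentrations were used to interpolate endpoints linearly. GI50: concentration for 50% inhibition of growth.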 Calls of active or inactive are those of the source. Cut-off read from the data, not from the text of the source: active = GI50 up to about 1.1 µM and inactive = higher.",
  "data": [
    {"smiles": "O=C1[C@H]2ON(c3ccccc3)C(c3ccc(Cl)cc3)[C@H]2C(=O)N1c1ccc(Cc2ccc(N3C(=O)[C@@H]4ON(c5ccccc5)C(c5ccc(Cl)cc5)[C@@H]4C3=O)cc2)cc1", "note": "(some centres not stated)", "values": [
      {"measurement": "GI50", "setting": "[1]", "value": "> 100 µM (inactive)"},
      {"measurement": "GI50", "setting": "[2]", "value": "> 100 µM (inactive)"},
      {"measurement": "GI50", "setting": "[3]", "value": "> 100 µM (inactive)"},
      {"measurement": "GI50", "setting": "[4]", "value": "> 100 µM (inactive)"},
      {"measurement": "GI50", "setting": "[5]", "value": "> 100 µM (inactive)"},
      {"measurement": "GI50", "setting": "[6]", "value": "> 100 µM (inactive)"},
      {"measurement": "GI50", "setting": "[7]", "value": "> 100 µM (inactive)"},
      {"measurement": "GI50", "setting": "[8]", "value": "18.7 µM (inactive)"},
      {"measurement": "GI50", "setting": "[9]", "value": "> 100 µM (inactive)"},
      {"measurement": "GI50", "setting": "[10]", "value": "> 100 µM (inactive)"},
      {"measurement": "GI50", "setting": "[11]", "value": "> 100 µM (inactive)"},
      {"measurement": "GI50", "setting": "[12]", "value": "> 100 µM (inactive)"},
      {"measurement": "GI50", "setting": "[13]", "value": "> 100 µM (inactive)"},
      {"measurement": "GI50", "setting": "[14]", "value": "> 100 µM (inactive)"},
      {"measurement": "GI50", "setting": "[15]", "value": "> 100 µM (inactive)"},
      {"measurement": "GI50", "setting": "[16]", "value": "> 100", "unit": "µM"},
      {"measurement": "GI50", "setting": "[17]", "value": "> 100 µM (inactive)"},
      {"measurement": "GI50", "setting": "[18]", "value": "> 100 µM (inactive)"},
      {"measurement": "GI50", "setting": "[19]", "value": "> 100 µM (inactive)"},
      {"measurement": "GI50", "setting": "[20]", "value": "40.7 µM (inactive)"},
      {"measurement": "GI50", "setting": "[21]", "value": "> 100 µM (inactive)"},
      {"measurement": "GI50", "setting": "[22]", "value": "> 100 µM (inactive)"},
      {"measurement": "GI50", "setting": "[23]", "value": "> 100 µM (inactive)"},
      {"measurement": "GI50", "setting": "[24]", "value": "> 100 µM (inactive)"},
      {"measurement": "GI50", "setting": "[25]", "value": "> 100 µM (inactive)"},
      {"measurement": "GI50", "setting": "[26]", "value": "> 100 µM (inactive)"},
      {"measurement": "GI50", "setting": "[27]", "value": "> 100 µM (inactive)"},
      {"measurement": "GI50", "setting": "[28]", "value": "94.8 µM (inactive)"},
      {"measurement": "GI50", "setting": "[29]", "value": "> 100 µM (inactive)"},
      {"measurement": "GI50", "setting": "[30]", "value": "61.7 µM (inactive)"},
      {"measurement": "GI50", "setting": "[31]", "value": "> 100 µM (inactive)"},
      {"measurement": "GI50", "setting": "[32]", "value": "> 100 µM (inactive)"},
      {"measurement": "GI50", "setting": "[33]", "value": "> 100 µM (inactive)"},
      {"measurement": "GI50", "setting": "[34]", "value": "> 100 µM (inactive)"},
      {"measurement": "GI50", "setting": "[35]", "value": "> 100 µM (inactive)"},
      {"measurement": "GI50", "setting": "[36]", "value": "> 100 µM (inactive)"},
      {"measurement": "GI50", "setting": "[37]", "value": "> 100 µM (inactive)"},
      {"measurement": "GI50", "setting": "[38]", "value": "> 100 µM (inactive)"},
      {"measurement": "GI50", "setting": "[39]", "value": "> 100 µM (inactive)"},
      {"measurement": "GI50", "setting": "[40]", "value": "> 100 µM (inactive)"},
      {"measurement": "GI50", "setting": "[41]", "value": "> 100 µM (inactive)"},
      {"measurement": "GI50", "setting": "[42]", "value": "> 100 µM (inactive)"},
      {"measurement": "GI50", "setting": "[43]", "value": "> 100 µM (inactive)"},
      {"measurement": "GI50", "setting": "[44]", "value": "> 100 µM (inactive)"},
      {"measurement": "GI50", "setting": "[45]", "value": "> 100 µM (inactive)"},
      {"measurement": "GI50", "setting": "[46]", "value": "> 100 µM (inactive)"},
      {"measurement": "GI50", "setting": "[47]", "value": "> 100 µM (inactive)"},
      {"measurement": "GI50", "setting": "[48]", "value": "> 100 µM (inactive)"},
      {"measurement": "GI50", "setting": "[49]", "value": "> 100 µM (inactive)"},
      {"measurement": "GI50", "setting": "[50]", "value": "> 100 µM (inactive)"},
      {"measurement": "GI50", "setting": "[51]", "value": "> 100 µM (inactive)"},
      {"measurement": "GI50", "setting": "[52]", "value": "> 100 µM (inactive)"},
      {"measurement": "GI50", "setting": "[53]", "value": "> 100 µM (inactive)"},
      {"measurement": "GI50", "setting": "[54]", "value": "> 100 µM (inactive)"},
      {"measurement": "GI50", "setting": "[55]", "value": "> 100 µM (inactive)"},
      {"measurement": "GI50", "setting": "[56]", "value": "> 100 µM (inactive)"},
      {"measurement": "GI50", "setting": "[57]", "value": "> 100 µM (inactive)"}
    ]}
  ]
}
